{
  "source": "ChEMBL document CHEMBL3045187",
  "about": "“Chemical weed control in seedbed sown onion (Allium cepa L.)” (Crop Prot, 2006)",
  "key": {"Malva sylvestris [1]": {"system": "Malva sylvestris", "test": "Herbicidal activity against Malva sylvestris assessed as total dry weight at 2.5 kg/ha applied as spray before seed sowing (reference value: 4.1 MT/ha)", "type": "functional"}, "Allium cepa [2]": {"system": "Allium cepa", "test": "Phytotoxicity in Allium cepa (onion) seedling assessed as total fresh weight at 2.5 kg/ha applied as spray before seed sowing (reference value: 7.71 MT/ha)", "type": "organism-based", "conditions": "in vivo, other"}, "Malva sylvestris [3]": {"system": "Malva sylvestris", "test": "Herbicidal activity against Malva sylvestris assessed as total fresh weight at 2.5 kg/ha applied as spray before seed sowing (reference value: 23.6 MT/ha)", "type": "functional"}, "Cyperus rotundus [4]": {"system": "Cyperus rotundus", "test": "Herbicidal activity against Cyperus rotundus assessed as total fresh weight at 2.5 kg/ha applied as spray before seed sowing (reference value: 23.6 MT/ha)", "type": "functional"}, "Chenopodiastrum murale [5]": {"system": "Chenopodiastrum murale", "test": "Herbicidal activity against Chenopodium murale assessed as total fresh weight at 2.5 kg/ha applied as spray before seed sowing (reference value: 23.6 MT/ha)", "type": "functional"}, "Chenopodiastrum murale [6]": {"system": "Chenopodiastrum murale", "test": "Herbicidal activity against Chenopodium murale assessed as total dry weight at 2.5 kg/ha applied as spray before seed sowing (reference value: 4.1 MT/ha)", "type": "functional"}, "Cyperus rotundus [7]": {"system": "Cyperus rotundus", "test": "Herbicidal activity against Cyperus rotundus assessed as total dry weight at 2.5 kg/ha applied as spray before seed sowing (reference value: 4.1 MT/ha)", "type": "functional"}, "Cyperus rotundus [8]": {"system": "Cyperus rotundus", "test": "Herbicidal activity against Cyperus rotundus assessed as total dry weight at 1.5 kg/ha applied as spray before seed sowing (reference value: 4.1 MT/ha)", "type": "functional", "conditions": "pooled result: one value given for 3 cell lines, strains, targets or settings"}, "Allium cepa [9]": {"system": "Allium cepa", "test": "Phytotoxicity in Allium cepa (onion) seedling assessed as total fresh weight at 1.5 kg/ha applied as spray before seed sowing (reference value: 7.71 MT/ha)", "type": "organism-based", "conditions": "in vivo, other"}, "Cyperus rotundus [10]": {"system": "Cyperus rotundus", "test": "Herbicidal activity against Cyperus rotundus assessed as total fresh weight at 1.5 kg/ha applied as spray before seed sowing (reference value: 23.6 MT/ha)", "type": "functional", "conditions": "pooled result: one value given for 3 cell lines, strains, targets or settings"}, "Malva sylvestris [11]": {"system": "Malva sylvestris", "test": "Herbicidal activity against Malva sylvestris assessed as total dry weight at 3.2 kg/ha applied as spray before seed sowing (reference value: 4.1 MT/ha)", "type": "functional"}, "Chenopodiastrum murale [12]": {"system": "Chenopodiastrum murale", "test": "Herbicidal activity against Chenopodium murale assessed as total fresh weight at 3.2 kg/ha applied as spray before seed sowing (reference value: 23.6 MT/ha)", "type": "functional"}, "Cyperus rotundus [13]": {"system": "Cyperus rotundus", "test": "Herbicidal activity against Cyperus rotundus assessed as total fresh weight at 3.2 kg/ha applied as spray before seed sowing (reference value: 23.6 MT/ha)", "type": "functional"}, "Cyperus rotundus [14]": {"system": "Cyperus rotundus", "test": "Herbicidal activity against Cyperus rotundus assessed as total dry weight at 3.2 kg/ha applied as spray before seed sowing (reference value: 4.1 MT/ha)", "type": "functional"}, "Allium cepa [15]": {"system": "Allium cepa", "test": "Phytotoxicity in Allium cepa (onion) seedling assessed as total fresh weight at 3.2 kg/ha applied as spray before seed sowing (reference value: 7.71 MT/ha)", "type": "organism-based", "conditions": "in vivo, other"}, "Malva sylvestris [16]": {"system": "Malva sylvestris", "test": "Herbicidal activity against Malva sylvestris assessed as total fresh weight at 3.2 kg/ha applied as spray before seed sowing (reference value: 23.6 MT/ha)", "type": "functional"}, "Chenopodiastrum murale [17]": {"system": "Chenopodiastrum murale", "test": "Herbicidal activity against Chenopodium murale assessed as total dry weight at 3.2 kg/ha applied as spray before seed sowing (reference value: 4.1 MT/ha)", "type": "functional"}, "Cyperus rotundus [18]": {"system": "Cyperus rotundus", "test": "Herbicidal activity against Cyperus rotundus assessed as total fresh weight at 0.1 kg/ha applied as spray during post-emergence (reference value: 23.6 MT/ha)", "type": "functional"}, "Malva sylvestris [19]": {"system": "Malva sylvestris", "test": "Herbicidal activity against Malva sylvestris assessed as total fresh weight at 0.1 kg/ha applied as spray during post-emergence (reference value: 23.6 MT/ha)", "type": "functional"}, "Malva sylvestris [20]": {"system": "Malva sylvestris", "test": "Herbicidal activity against Malva sylvestris assessed as total dry weight at 0.1 kg/ha applied as spray during post-emergence (reference value: 4.1 MT/ha)", "type": "functional"}, "Chenopodiastrum murale [21]": {"system": "Chenopodiastrum murale", "test": "Herbicidal activity against Chenopodium murale assessed as total fresh weight at 0.1 kg/ha applied as spray during postemergence (reference value: 23.6 MT/ha)", "type": "functional"}, "Cyperus rotundus [22]": {"system": "Cyperus rotundus", "test": "Herbicidal activity against Cyperus rotundus assessed as total dry weight at 0.1 kg/ha applied as spray during post-emergence (reference value: 4.1 MT/ha)", "type": "functional"}, "Chenopodiastrum murale [23]": {"system": "Chenopodiastrum murale", "test": "Herbicidal activity against Chenopodium murale assessed as total dry weight at 0.1 kg/ha applied as spray during postemergence (reference value: 4.1 MT/ha)", "type": "functional"}, "Allium cepa [24]": {"system": "Allium cepa", "test": "Phytotoxicity in Allium cepa (onion) seedling assessed as total fresh weight at 0.1 kg/ha applied as spray during postemergence (reference value: 7.71 MT/ha)", "type": "organism-based", "conditions": "in vivo, other"}, "Malva sylvestris [25]": {"system": "Malva sylvestris", "test": "Herbicidal activity against Malva sylvestris assessed as total fresh weight at 0.86 kg/ha applied as spray before seed sowing (reference value: 23.6 MT/ha)", "type": "functional"}, "Chenopodiastrum murale [26]": {"system": "Chenopodiastrum murale", "test": "Herbicidal activity against Chenopodium murale assessed as total dry weight at 0.86 kg/ha applied as spray before seed sowing (reference value: 4.1 MT/ha)", "type": "functional"}, "Chenopodiastrum murale [27]": {"system": "Chenopodiastrum murale", "test": "Herbicidal activity against Chenopodium murale assessed as total fresh weight at 0.86 kg/ha applied as spray before seed sowing (reference value: 23.6 MT/ha)", "type": "functional"}, "Cyperus rotundus [28]": {"system": "Cyperus rotundus", "test": "Herbicidal activity against Cyperus rotundus assessed as total dry weight at 0.86 kg/ha applied as spray before seed sowing (reference value: 4.1 MT/ha)", "type": "functional"}, "Allium cepa [29]": {"system": "Allium cepa", "test": "Phytotoxicity in Allium cepa (onion) seedling assessed as total fresh weight at 0.86 kg/ha applied as spray before seed sowing (reference value: 7.71 MT/ha)", "type": "organism-based", "conditions": "in vivo, other"}, "Malva sylvestris [30]": {"system": "Malva sylvestris", "test": "Herbicidal activity against Malva sylvestris assessed as total dry weight at 0.86 kg/ha applied as spray before seed sowing (reference value: 4.1 MT/ha)", "type": "functional"}, "Cyperus rotundus [31]": {"system": "Cyperus rotundus", "test": "Herbicidal activity against Cyperus rotundus assessed as total fresh weight at 0.86 kg/ha applied as spray before seed sowing (reference value: 23.6 MT/ha)", "type": "functional"}},
  "data": [
    {"smiles": "CSc1nc(NC(C)C)nc(NC(C)C)n1", "note": "[PROMETRYN]", "values": [
      {"measurement": "Activity", "setting": "Malva sylvestris [1]", "value": 3.81, "unit": "MT/ha"},
      {"measurement": "Activity", "setting": "Allium cepa [2]", "value": 3.67, "unit": "MT/ha"},
      {"measurement": "Activity", "setting": "Malva sylvestris [3]", "value": 19.8, "unit": "MT/ha"},
      {"measurement": "Activity", "setting": "Cyperus rotundus [4]", "value": 19.8, "unit": "MT/ha"},
      {"measurement": "Activity", "setting": "Chenopodiastrum murale [5]", "value": 19.8, "unit": "MT/ha"},
      {"measurement": "Activity", "setting": "Chenopodiastrum murale [6]", "value": 3.81, "unit": "MT/ha"},
      {"measurement": "Activity", "setting": "Cyperus rotundus [7]", "value": 3.81, "unit": "MT/ha"}
    ]},
    {"smiles": "C#CC(C)(C)NC(=O)c1cc(Cl)cc(Cl)c1", "note": "[PRONAMIDE]", "values": [
      {"measurement": "Activity", "setting": "Cyperus rotundus [8]", "value": 3.61, "unit": "MT/ha"},
      {"measurement": "Activity", "setting": "Allium cepa [9]", "value": 6.67, "unit": "MT/ha"},
      {"measurement": "Activity", "setting": "Cyperus rotundus [10]", "value": 20.5, "unit": "MT/ha"}
    ]},
    {"smiles": "Nc1cnn(-c2ccccc2)c(=O)c1Cl", "note": "[PYRAZON]", "values": [
      {"measurement": "Activity", "setting": "Malva sylvestris [11]", "value": 1.94, "unit": "MT/ha"},
      {"measurement": "Activity", "setting": "Chenopodiastrum murale [12]", "value": 9.5, "unit": "MT/ha"},
      {"measurement": "Activity", "setting": "Cyperus rotundus [13]", "value": 9.5, "unit": "MT/ha"},
      {"measurement": "Activity", "setting": "Cyperus rotundus [14]", "value": 1.94, "unit": "MT/ha"},
      {"measurement": "Activity", "setting": "Allium cepa [15]", "value": 6.68, "unit": "MT/ha"},
      {"measurement": "Activity", "setting": "Malva sylvestris [16]", "value": 9.5, "unit": "MT/ha"},
      {"measurement": "Activity", "setting": "Chenopodiastrum murale [17]", "value": 1.94, "unit": "MT/ha"}
    ]},
    {"smiles": "CCOC(=O)C(C)Oc1ccc(Oc2cnc3cc(Cl)ccc3n2)cc1", "note": "(stereo unspecified) [QUIZALOFOP ETHYL ESTER]", "values": [
      {"measurement": "Activity", "setting": "Cyperus rotundus [18]", "value": 10.7, "unit": "MT/ha"},
      {"measurement": "Activity", "setting": "Malva sylvestris [19]", "value": 10.7, "unit": "MT/ha"},
      {"measurement": "Activity", "setting": "Malva sylvestris [20]", "value": 2.52, "unit": "MT/ha"},
      {"measurement": "Activity", "setting": "Chenopodiastrum murale [21]", "value": 10.7, "unit": "MT/ha"},
      {"measurement": "Activity", "setting": "Cyperus rotundus [22]", "value": 2.52, "unit": "MT/ha"},
      {"measurement": "Activity", "setting": "Chenopodiastrum murale [23]", "value": 2.52, "unit": "MT/ha"},
      {"measurement": "Activity", "setting": "Allium cepa [24]", "value": 10.11, "unit": "MT/ha"}
    ]},
    {"smiles": "CCCN(CCC)c1c([N+](=O)[O-])cc(C(F)(F)F)cc1[N+](=O)[O-]", "note": "[TRIFLURALIN]", "values": [
      {"measurement": "Activity", "setting": "Malva sylvestris [25]", "value": 14.8, "unit": "MT/ha"},
      {"measurement": "Activity", "setting": "Chenopodiastrum murale [26]", "value": 2.69, "unit": "MT/ha"},
      {"measurement": "Activity", "setting": "Chenopodiastrum murale [27]", "value": 14.8, "unit": "MT/ha"},
      {"measurement": "Activity", "setting": "Cyperus rotundus [28]", "value": 2.69, "unit": "MT/ha"},
      {"measurement": "Activity", "setting": "Allium cepa [29]", "value": 7.04, "unit": "MT/ha"},
      {"measurement": "Activity", "setting": "Malva sylvestris [30]", "value": 2.69, "unit": "MT/ha"},
      {"measurement": "Activity", "setting": "Cyperus rotundus [31]", "value": 14.8, "unit": "MT/ha"}
    ]}
  ]
}
